One test deals with Karpas422 cells. The test can be described thus: Tumor cell growth inhibition assay. Format: cell-based. The note with it: Homo sapiens, KARPAS-422, 144 h, read-out: GI Karpas EC50. In outline: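 Karpas422 cells were dosed over a 10-point concentration range (top 5 μM) and grown 6 days at 37 °C, 5% CO2, in Alpha-MEM with 10% FBS. Viability was read as ATPlite luminescence.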
The test system of test [1] is BCL6 reporter construct in SuDHL4-3×BCL6-TK-Luc cells. Put plainly: Cell-based luciferase assay (BCL6 reporter). The following applies: 48 h, read-out: Luc IC50. In outline:
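SuDHL4 cells stably carrying a 3×BCL6-site TK-promoter firefly luciferase reporter, 15,000 cells/well, dosed over 10 concentrations (top 10 μM) and cultured two days at 37° C, 5% CO2. Luciferase luminescence read after room-temperature equilibration with neolite reagent.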

Test [2] deals with BCL6 BTB domain (biotin-thrombin-BCL6 amino acids 1-129) (Homo sapiens (Human), UniProt P41182). Put plainly: Surface Plasmon Resonance (SPR) assay. Format: binding. The following applies: Biacore T200, single cycle kinetic analysis. The method, then: Surface Plasmon Resonance (SPR) Assay
SPR studies were performed using a Biacore™ T200 instrument (GE Health Sciences Inc.). […] The Biacore flow rate was set at 100 μl/min. […] Curve fitting and KD calculations were performed with the Biacore T200 Evaluation software (GE Health Sciences Inc).

[3] abbreviates: Karpas422 cells, six days, ATPlite.
Setting [4] is: SuDHL4-3×BCL6-TK-Luc cells, two days.

Like-named read-outs stand apart in the source and are kept apart here.

On to `C[C@H]1CN(CCC(F)(F)F)CCN1c1cc(NC(=O)Cn2cc(-c3cc(C(N)=O)c(O)c(F)c3F)c3c(=O)n4c(nc32)CCC4)c(Cl)c(F)n1` [I-40, (S)-5-(1-(2-((3-chloro-2-fluoro-6-(2-methyl-4-(3,3,3-trifluoropropyl)piperazin-1-yl)pyridin-4-yl)amino)-2-oxoethyl)-4-oxo-4,6,7,8-tetrahydro-1H-dipyrrolo[1,2-a:2′,3′-d]pyrimidin-3-yl)-3,4-difluoro-2-hydroxy-benzamide], for which the EC50 (commonly the concentration needed to bring the measured effect to its halfway point) in the test on Karpas422 cells (setting [3]) was determined as 273 nM. For the same compound, the IC50 – broadly, the concentration that inhibits the measured activity by half – in test [1] (setting [4]) was 187 nM. Further, in test [2], binding was put at a Kd of 134 nM.
On to `C[C@H]1COCCN1c1cc(NC(=O)Cn2cc(-c3cc(C(N)=O)c(O)c(F)c3F)c3c(=O)n4c(nc32)CCCC4)c(Cl)c(F)n1` [I-42, (S)-5-(1-(2-((3-chloro-2-fluoro-6-(3-methyl-morpholino)pyridin-4-yl)amino)-2-oxoethyl)-4-oxo-1,4,6,7,8,9-hexahydropyrido [1,2-a]pyrrolo[2,3-d]pyrimidin-3-yl)-3,4-difluoro-2-hydroxy-benzamide], for which the EC50 in the test on Karpas422 cells (setting [3]) amounted to 331 nM. The IC50 in test [1] (setting [4]) amounted to 407 nM. Also, the Kd (as a rule, the free concentration of one partner at which half of the binding sites on the other are occupied at equilibrium, for simple one-to-one binding) in test [2] is 29 nM.
As for `CCN1CCN(c2cc(NC(=O)Cn3cc(-c4cc(C(N)=O)c(O)c(F)c4F)c4c(=O)n5c(nc43)CCCC5)c(Cl)c(F)n2)[C@@H](C)C1` [I-43, (S)-5-(1-(2-((3-chloro-6-(4-ethyl-2-methyl-piperazin-1-yl)-2-fluoropyridin-4-yl)amino)-2-oxoethyl)-4-oxo-1,4,6,7,8,9-hexahydropyrido [1,2-a]pyrrolo[2,3-d]pyrimidin-3-yl)-3,4-difluoro-2-hydroxy-benzamide], the EC50 in the test on Karpas422 cells (setting [3]) stood at 240 nM. For the same compound, in test [1] (setting [4]), the IC50 turned out to be 232 nM. In test [2], this compound had a Kd of 42.8 nM.
On to `C[C@H]1CN(C2COC2)CCN1c1cc(NC(=O)Cn2cc(-c3cc(C(N)=O)c(O)c(F)c3F)c3c(=O)n4c(nc32)CCCC4)c(Cl)c(F)n1` [I-44, (S)-5-(1-(2-((3-chloro-2-fluoro-6-(2-methyl-4-(oxetan-3-yl)piperazin-1-yl)pyridin-4-yl)amino)-2-oxo-ethyl)-4-oxo-1,4,6,7,8,9-hexahydropyrido [1,2-a]pyrrolo[2,3-d]pyrimidin-3-yl)-3,4-difluoro-2-hydroxy-benzamide], for which the EC50 in the test on Karpas422 cells is 310 nM. In test [1], the IC50 was 104 nM. Binding in test [2] was characterised by a dissociation constant (Kd) of 25 nM.
Turning to `C[C@H]1CN(CC2CC2)CCN1c1cc(NC(=O)Cn2cc(-c3cc(C(N)=O)c(O)c(F)c3F)c3c(=O)n4c(nc32)CCCC4)c(Cl)c(F)n1` [I-45, (S)-5-(1-(2-((3-chloro-6-(4-(cyclopropyl-methyl)-2-methyl-piperazin-1-yl)-2-fluoropyridin-4-yl)amino)-2-oxoethyl)-4-oxo-1,4,6,7,8,9-hexahydropyrido [1,2-a]pyrrolo[2,3-d]pyrimidin-3-yl)-3,4-difluoro-2-hydroxy-benzamide], the EC50 in the test with Karpas422 cells came to 1330 nM. For the same compound, the IC50 in test [1] was found to be 469 nM. Moreover, the Kd in test [2] turned out to be 31.8 nM.
On to `C[C@H]1CN(CC(CO)CO)CCN1c1cc(NC(=O)Cn2cc(-c3cc(C(N)=O)c(O)c(F)c3F)c3c(=O)n4c(nc32)CCC4)c(Cl)c(F)n1` [I-46, (S)-5-(1-(2-((3-chloro-2-fluoro-6-(4-(3-hydroxy-2-(hydroxymethyl)propyl)-2-methylpiperazin-1-yl)pyridin-4-yl)amino)-2-oxoethyl)-4-oxo-4,6,7,8-tetrahydro-1H-dipyrrolo[1,2-a:2′,3′-d]pyrimidin-3-yl)-3,4-difluoro-2-hydroxybenzamide], for which the EC50 in the test on Karpas422 cells (setting [3]) was determined as 487 nM. In addition, the IC50 in test [1] (setting [4]) was determined as 935 nM. Binding in test [2] was put at a Kd of 3.13 nM.
On the same counts, the results for `NC(=O)c1cc(-c2cn(CC(=O)Nc3cc(N4CCCC4)nc(F)c3Cl)c3nc4n(c(=O)c23)CCC4)c(F)c(F)c1O` [I-47, 5-(1-(2-((3-chloro-2-fluoro-6-(pyrrolidin-1-yl)pyridin-4-yl)amino)-2-oxoethyl)-4-oxo-4,6,7,8-tetrahydro-1H-dipyrrolo[1,2-a:2′,3′-d]pyrimidin-3-yl)-3,4-difluoro-2-hydroxy-benzamide] are 212 nM, 166 nM and 23.9 nM.
On the same counts, the results for `C[C@H]1CN(CC(F)F)CCN1c1cc(NC(=O)Cn2cc(-c3cc(C(N)=O)c(O)c(F)c3F)c3c(=O)n4c(nc32)CCC4)c(Cl)c(F)n1` [I-48, (S)-5-(1-(2-((3-chloro-6-(4-(2,2-difluoroethyl)-2-methylpiperazin-1-yl)-2-fluoropyridin-4-yl)amino)-2-oxoethyl)-4-oxo-4,6,7,8-tetrahydro-1H-dipyrrolo[1,2-a:2′,3′-d]pyrimidin-3-yl)-3,4-difluoro-2-hydroxy-benzamide] are 64.6 nM, 96.4 nM and 13.7 nM.
As for `C[C@H]1CN(C2COC2)CCN1c1cc(NC(=O)Cn2cc(-c3cc(C(N)=O)c(O)c(F)c3F)c3c(=O)n4c(nc32)CCCCC4)c(Cl)c(F)n1` [I-50, (S)-5-(1-(2-((3-chloro-2-fluoro-6-(2-methyl-4-(oxetan-3-yl)piperazin-1-yl)pyridin-4-yl)amino)-2-oxo-ethyl)-4-oxo-4,6,7,8,9,10-hexahydro-1H-pyrrolo [2′,3′:4,5]pyrimido [1,2-a]azepin-3-yl)-3,4-difluoro-2-hydroxybenzamide], in the test on Karpas422 cells (setting [3]), the EC50 amounted to 475 nM. Further, the IC50 in test [1] (setting [4]) came out at 395 nM. Besides, the Kd in test [2] was found to be 43 nM.
Regarding `C[C@H]1COCCN1c1cc(NC(=O)Cn2cc(-c3cc(C(N)=O)c(O)c(F)c3F)c3c(=O)n4c(nc32)CCCCC4)c(Cl)c(F)n1` [I-51, (S)-5-(1-(2-((3-chloro-2-fluoro-6-(3-methyl-morpholino)pyridin-4-yl)amino)-2-oxoethyl)-4-oxo-4,6,7,8,9,10-hexahydro-1H-pyrrolo [2′,3′:4,5]pyrimido [1,2-a]azepin-3-yl)-3,4-difluoro-2-hydroxy-benzamide], the concentration for a half-maximal effect (EC50) in the test with Karpas422 cells (setting [3]) came to 974 nM. Further, the IC50 in test [1] (setting [4]) is 3050 nM. In test [2], this compound returned a Kd of 89.1 nM.
In the case of `CCN1CCN(c2cc(NC(=O)Cn3cc(-c4cc(C(N)=O)c(O)c(F)c4F)c4c(=O)n5c(nc43)CCCCC5)c(Cl)c(F)n2)[C@@H](C)C1` [I-52, (S)-5-(1-(2-((3-chloro-6-(4-ethyl-2-methyl-piperazin-1-yl)-2-fluoropyridin-4-yl)amino)-2-oxoethyl)-4-oxo-4,6,7,8,9,10-hexahydro-1H-pyrrolo [2′,3′:4,5]pyrimido [1,2-a]azepin-3-yl)-3,4-difluoro-2-hydroxy-benzamide], in the test with Karpas422 cells (setting [3]), the EC50 turned out to be 1670 nM. Also, the IC50 in test [1] (setting [4]) amounted to 820 nM. In addition, the Kd in test [2] is 76.5 nM.
Consider `C[C@H]1CNCCN1c1cc(NC(=O)Cn2cc(-c3cc(C(N)=O)c(O)c(F)c3F)c3c(=O)n4c(nc32)CCC4)c(Cl)c(F)n1` [I-53, (S)-5-(1-(2-((3-chloro-2-fluoro-6-(2-methyl-piperazin-1-yl)pyridin-4-yl)amino)-2-oxo-ethyl)-4-oxo-4,6,7,8-tetrahydro-1H-dipyrrolo [1,2-a:2′,3′-d]pyrimidin-3-yl)-3,4-difluoro-2-hydroxybenzamide], for which, in the test with Karpas422 cells (setting [3]), the EC50 worked out at 646 nM. Besides, the IC50 in test [1] (setting [4]) worked out at 504 nM. This compound also showed a Kd in test [2] of 5.83 nM.
Regarding `C[C@H]1CN(C)C[C@H](C)N1c1cc(NC(=O)Cn2cc(-c3cc(C(N)=O)c(O)c(F)c3F)c3c(=O)n4c(nc32)CCC4)c(Cl)cn1` [I-54, 5-(1-(2-((5-chloro-2-((2S,6S)-2,4,6-trimethylpiperazin-1-yl)pyridin-4-yl)amino)-2-oxoethyl)-4-oxo-4,6,7,8-tetrahydro-1H-dipyrrolo[1,2-a:2′,3′-d]pyrimidin-3-yl)-3,4-difluoro-2-hydroxy-benzamide], in the test with Karpas422 cells, the EC50 stood at 2000 nM. Besides, the IC50 in test [1] is 5980 nM. This compound also yielded a Kd in test [2] of 97.6 nM.
On to `C[C@H]1CN(C)CCN1c1cc(NC(=O)Cn2cc(-c3cc(F)c(O)c(C(N)=O)c3)c3c(=O)n4c(nc32)CCC4)c(Cl)c(F)n1` [I-55, (S)-5-(1-(2-((3-chloro-6-(2,4-dimethyl-piperazin-1-yl)-2-fluoropyridin-4-yl)amino)-2-oxoethyl)-4-oxo-4,6,7,8-tetrahydro-1H-dipyrrolo [1,2-a:2′,3′-d]pyrimidin-3-yl)-3-fluoro-2-hydroxybenzamide], for which the EC50 in the test on Karpas422 cells was determined as 16.6 nM. Besides, the IC50 in test [1] was determined as 13.5 nM. The compound also gave a Kd in test [2] of 1.5 nM.
In the case of `CN1C[C@H]2CC[C@@H](C1)N2c1cc(NC(=O)Cn2cc(-c3cc(C(N)=O)c(O)c(F)c3F)c3c(=O)n4c(nc32)CCC4)c(Cl)cn1` [I-56, 5-(1-(2-((5-chloro-2-((1R,5S)-3-methyl-3,8-diazabicyclo[3.2.1]octan-8-yl)pyridin-4-yl)amino)-2-oxoethyl)-4-oxo-4,6,7,8-tetrahydro-1H-dipyrrolo[1,2-a:2′,3′-d]pyrimidin-3-yl)-3,4-difluoro-2-hydroxy-benzamide], the EC50 in the test on Karpas422 cells (setting [3]) was found to be 586 nM. In addition, the IC50 in test [1] (setting [4]) turned out to be 684 nM. In addition, the Kd in test [2] was determined as 38.7 nM.
Consider `C[C@H]1CN(C)CCN1c1cc(NC(=O)Cn2cc(-c3cc(C(N)=O)c(O)c(F)c3F)c3c(=O)n4c(nc32)CC(C)(C)C4)c(Cl)c(F)n1` [I-57, (S)-5-(1-(2-((3-chloro-6-(2,4-dimethyl-piperazin-1-yl)-2-fluoropyridin-4-yl)amino)-2-oxoethyl)-7,7-dimethyl-4-oxo-4,6,7,8-tetrahydro-1H-dipyrrolo[1,2-a:2′,3′-d]pyrimidin-3-yl)-3,4-difluoro-2-hydroxy-benzamide], for which the EC50 with Karpas422 cells came to 62.1 nM. Moreover, in test [1], the IC50 was 114 nM. In test [2], the Kd was 11.2 nM.

The values are drawn from patent US11242351B2, “Tricyclic inhibitors of the BCL6 BTB domain protein-protein interaction and uses thereof” (priority 2017, dated 2022).
